Measurements from patent US10927106B2, “Benzothiazole derivatives as DYRK1 inhibitors” (PHARMASUM THERAPEUTICS AS, priority 2017, dated 2021).

Assays:
[1] = system: tau/MAPT phosphorylation in TS21 neurons; assay: Tau/MAPT phosphorylation in TS21 neuronal cultures, Western blotting; type: cell-based, human; conditions: treated for 10 days
Protocol: (§1) Overexpression of DYRK1A in DS is thought to account for increased tau phosphorylation by GSK3β and the increase in DYRK1A positive neurofibrillary tangles (NFTs) in the brains of people with DS and AD. Therefore therapeutic inhibition of DYRK1A activity in DS and AD may delay the progression of neurodegeneration in DS and AD. The following experiment on reduction of tau phosphorylation by inhibition of DYRK1A by inhibitor 4-93 was performed as described in the literature (Shi, Y. et al. A human stem cell model of early Alzheimer's disease pathology in Down syndrome. Sci. Transl. Med. 4, 124ra29 (2012)).
(§2) Neuronal cultures at day 40 were treated with DYRK1A inhibitors and control compounds for 10 days. Total protein was extracted and total tau and phosphorylated tau/MAPT was quantified by Western blotting using antibodies to total tau and a number of phospho-tau epitopes.

[2] = system: tau/MAPT phosphorylation in control neurons; assay: Tau/MAPT phosphorylation in control neurons, Western blotting; type: cell-based, human; conditions: treated for 10 days, compared to DMSO treated controls
Protocol: as §1, §2

DYRK1A = DYRK1A (Homo sapiens (Human), UniProt Q13627); assay: IC50 determination, methodology similar to Example A (Example B); type: biochemical; conditions: against DYRK1A; Table 8
Source text: This method is sensitive, accurate and provides a direct measure of activity.

[3] = TS21 neurons, normalised to β-actin, vs DMSO treated controls

Row | Compound | total tau protein levels ([1]; TS21 neuronal cultures) | tau phosphorylation at Ser 396 [1, 3] | tau phosphorylation at Ser 404 [1, 3] | tau/MAPT phosphorylation at Ser 396 [2] | tau/MAPT phosphorylation at Ser 404 [2] | IC50 (DYRK1A) [nM]
1 | C[C@H](NC(=O)Cc1cc(F)cc(F)c1)C(=O)N[C@H](C(=O)OC(C)(C)C)c1ccccc1 [DAPT, reference compound] | increased | increased | increased | increased | increased | –
2 | COc1ccc(Nc2ccncc2-c2nc3cc(OC)ccc3s2)c(F)c1 [PST-131] | – | – | – | – | – | 351
